Test results taken from article PMC10061512 (ACS Omega, 2023).
Where “and” joins values, the source holds several entries; their conditions need not be identical. Equal values may be shown once.

Columns and labels:
[1] = molecular target: eqBChE (Equus caballus, UniProt P81908); assay: BChE inhibition and enzyme kinetics, Ellman assay; format: biochemical, equine
[2] = molecular target: EeAChE (Electrophorus electricus, UniProt O42275); assay: AChE inhibition and enzyme kinetics, Ellman assay; format: biochemical, electric eel; details: IC50 (μM) ± SD EeAChE, Ellman assay
[3] = molecular target: hBACE-1 (Homo sapiens, UniProt P56817); assay: biochemical
[4] = molecular target: amyloid β 1–42 peptide (Homo sapiens, UniProt P05067); assay: Aβ-42 self-aggregation inhibition assay; format: biochemical; details: read-out: inhibition of self-aggregation of Aβ1–42 monomers
amyloid β 1–42 peptide, sequence (P05067 672-713): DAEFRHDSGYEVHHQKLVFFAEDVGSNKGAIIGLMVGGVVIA

hBACE-1, sequence (P56817 46-501): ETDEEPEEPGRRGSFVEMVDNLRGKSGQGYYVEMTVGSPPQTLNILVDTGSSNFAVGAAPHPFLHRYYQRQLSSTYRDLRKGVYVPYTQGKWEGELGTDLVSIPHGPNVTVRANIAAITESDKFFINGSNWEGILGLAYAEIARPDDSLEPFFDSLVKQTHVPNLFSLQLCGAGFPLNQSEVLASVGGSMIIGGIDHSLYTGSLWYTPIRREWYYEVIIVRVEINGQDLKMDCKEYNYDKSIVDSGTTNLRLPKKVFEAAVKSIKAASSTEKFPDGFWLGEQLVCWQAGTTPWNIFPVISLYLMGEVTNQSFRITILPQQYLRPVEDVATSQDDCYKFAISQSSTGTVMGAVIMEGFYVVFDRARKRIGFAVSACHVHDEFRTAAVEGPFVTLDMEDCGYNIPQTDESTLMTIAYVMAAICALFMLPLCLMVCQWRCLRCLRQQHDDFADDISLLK
EeAChE, sequence (O42275 24-633): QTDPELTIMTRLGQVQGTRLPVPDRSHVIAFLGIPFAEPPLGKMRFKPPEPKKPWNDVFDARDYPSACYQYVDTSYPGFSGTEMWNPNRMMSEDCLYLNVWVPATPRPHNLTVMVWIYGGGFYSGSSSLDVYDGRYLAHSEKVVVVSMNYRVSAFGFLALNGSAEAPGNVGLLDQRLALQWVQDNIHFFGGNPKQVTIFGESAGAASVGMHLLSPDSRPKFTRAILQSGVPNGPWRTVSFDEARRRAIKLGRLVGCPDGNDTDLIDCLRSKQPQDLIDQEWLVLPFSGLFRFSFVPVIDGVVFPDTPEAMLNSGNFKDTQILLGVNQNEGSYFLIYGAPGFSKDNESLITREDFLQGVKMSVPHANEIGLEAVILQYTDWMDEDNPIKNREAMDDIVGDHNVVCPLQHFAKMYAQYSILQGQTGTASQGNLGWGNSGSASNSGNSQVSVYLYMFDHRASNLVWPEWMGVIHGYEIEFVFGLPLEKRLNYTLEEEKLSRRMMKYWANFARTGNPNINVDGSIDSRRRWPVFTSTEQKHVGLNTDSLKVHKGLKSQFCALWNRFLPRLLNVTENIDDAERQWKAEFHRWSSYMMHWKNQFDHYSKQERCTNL
eqBChE, sequence (P81908 whole entry): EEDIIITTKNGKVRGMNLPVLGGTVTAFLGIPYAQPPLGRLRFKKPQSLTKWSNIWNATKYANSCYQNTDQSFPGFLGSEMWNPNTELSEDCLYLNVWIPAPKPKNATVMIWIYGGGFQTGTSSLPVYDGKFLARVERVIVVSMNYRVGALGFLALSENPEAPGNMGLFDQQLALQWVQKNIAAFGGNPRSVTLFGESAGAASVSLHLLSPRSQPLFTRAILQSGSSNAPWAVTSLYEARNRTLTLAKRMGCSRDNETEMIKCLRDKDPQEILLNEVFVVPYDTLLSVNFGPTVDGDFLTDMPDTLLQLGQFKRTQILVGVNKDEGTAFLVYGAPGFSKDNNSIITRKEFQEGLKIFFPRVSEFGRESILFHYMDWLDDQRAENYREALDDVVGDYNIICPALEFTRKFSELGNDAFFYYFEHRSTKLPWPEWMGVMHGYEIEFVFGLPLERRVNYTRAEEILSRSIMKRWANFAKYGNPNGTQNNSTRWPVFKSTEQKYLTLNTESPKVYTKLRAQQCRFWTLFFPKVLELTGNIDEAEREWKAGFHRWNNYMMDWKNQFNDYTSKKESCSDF

SMILES | IC50 [1] [µM] | IC50 [2] | IC50 [3] [µM] | inhibition at 10 µM [4] [%]
O=c1cc(OCc2cn(Cc3ccccc3)nn2)c2ccccc2o1 [8a, 4-((1-Benzyl-1H-1,2,3-triazol-4-yl)methoxy)-2H-chromen-2-one] | 212 ± 2.55 | 151 ± 3.14 µM | 72.9 ± 2.4 | –
O=c1cc(OCc2cn(Cc3ccccc3Cl)nn2)c2ccccc2o1 [8b, 4-((1-(2-Chlorobenzyl)-1H-1,2,3-triazol-4-yl)methoxy)-2H-chromen-2-one] | 42.2 ± 0.78 | 68.7 ± 0.71 µM | 186.6 ± 1.21 | –
O=c1cc(OCc2cn(Cc3cccc(Cl)c3)nn2)c2ccccc2o1 [8c, 4-((1-(3-Chlorobenzyl)-1H-1,2,3-triazol-4-yl)methoxy)-2H-chromen-2-one] | 61.9 ± 3.66 | 62.6 ± 2.4 µM | 24.8 ± 1.49 | –
O=c1cc(OCc2cn(Cc3c(Cl)cccc3Cl)nn2)c2ccccc2o1 [8d, 4-((1-(2,6-Dichlorobenzyl)-1H-1,2,3-triazol-4-yl)methoxy)-2H-chromen-2-one] | 40.3 ± 0.93 | 59.4 ± 2.71 µM | 106 ± 1.38 | –
O=c1cc(OCc2cn(Cc3ccccc3F)nn2)c2ccccc2o1 [8e, 4-((1-(2-Fluorobenzyl)-1H-1,2,3-triazol-4-yl)methoxy)-2H-chromen-2-one] | 62.3 ± 1.2 | 89.2 ± 1.88 µM | 111.2 ± 0.63 | –
O=c1cc(OCc2cn(Cc3cccc(F)c3)nn2)c2ccccc2o1 [8f, 4-((1-(3-Fluorobenzyl)-1H-1,2,3-triazol-4-yl)methoxy)-2H-chromen-2-one] | 236 ± 3.6 | 232.8 ± 2.31 µM | 22.3 ± 1.54 | –
O=c1cc(OCc2cn(Cc3ccc(F)cc3)nn2)c2ccccc2o1 [8g, 4-((1-(4-Fluorobenzyl)-1H-1,2,3-triazol-4-yl)methoxy)-2H-chromen-2-one] | 249 ± 3.1 | 194 ± 2.19 µM | 24.2 ± 1.98 | –
O=c1cc(OCc2cn(Cc3c(F)cccc3F)nn2)c2ccccc2o1 [8h, 4-((1-(2,6-Difluorobenzyl)-1H-1,2,3-triazol-4-yl)methoxy)-2H-chromen-2-one] | 66.7 ± 1.37 | 73.89 ± 0.63 µM | 135 ± 1.9 | –
O=c1cc(OCc2cn(Cc3ccccc3C(F)(F)F)nn2)c2ccccc2o1 [8i, 4-((1-(2-(Trifluoromethyl)benzyl)-1H-1,2,3-triazol-4-yl)methoxy)-2H-chromen-2-one] | 7.04 ± 0.77 | 4.83 ± 0.11 µM | 10.2 ± 0.79 | –
O=c1cc(OCc2cn(Cc3ccc(C(F)(F)F)cc3)nn2)c2ccccc2o1 [8j, 4-((1-(4-(Trifluoromethyl)benzyl)-1H-1,2,3-triazol-4-yl)methoxy)-2H-chromen-2-one] | 209 ± 2.11 | 23.3 ± 2.86 µM | 19.5 ± 0.66 | –
O=c1cc(OCc2cn(Cc3ccccc3OC(F)(F)F)nn2)c2ccccc2o1 [8k, 4-((1-(2-(Trifluoromethoxy)benzyl)-1H-1,2,3-triazol-4-yl)methoxy)-2H-chromen-2-one] | 9.95 ± 0.89 | 9.13 ± 0.73 µM | 18 ± 1.59 | –
O=c1cc(OCc2cn(Cc3ccc(OC(F)(F)F)cc3)nn2)c2ccccc2o1 [8l, 4-((1-(4-(Trifluoromethoxy)benzyl)-1H-1,2,3-triazol-4-yl)methoxy)-2H-chromen-2-one] | 158 ± 1.98 | 45.4 ± 1.4 µM | 132.9 ± 1.08 | –
Cc1ccccc1Cn1cc(COc2cc(=O)oc3ccccc23)nn1 [8m, 4-((1-(2-Methylbenzyl)-1H-1,2,3-triazol-4-yl)methoxy)-2H-chromen-2-one] | 172 ± 1.98 | 210.7 ± 1.83 µM | 162 ± 1.85 | –
COc1cccc(Cn2cc(COc3cc(=O)oc4ccccc34)nn2)c1 [8n, 4-((1-(3-Methoxybenzyl)-1H-1,2,3-triazol-4-yl)methoxy)-2H-chromen-2-one] | 140 ± 6.25 | 11.4 ± 1.16 µM | 126 ± 4.18 | –
COc1cc(Cn2cc(COc3cc(=O)oc4ccccc34)nn2)cc(OC)c1 [8o, 4-((1-(3,5-Dimethoxybenzyl)-1H-1,2,3-triazol-4-yl)methoxy)-2H-chromen-2-one] | 3.3 ± 0.01 | 2.76 ± 0.04 µM | 9.79 ± 1.36 | –
O=c1cc(OCc2cn(Cc3ccc([N+](=O)[O-])cc3)nn2)c2ccccc2o1 [8p, 4-((1-(4-Nitrobenzyl)-1H-1,2,3-triazol-4-yl)methoxy)-2H-chromen-2-one] | 220 ± 3.04 | 200.4 ± 0.85 µM | 156 ± 1.09 | –
COc1cccc(Cn2cc(COc3ccc4ccc(=O)oc4c3C(C)=O)nn2)c1 [10a, 8-Acetyl-7-((1-(3-methoxybenzyl)-1H-1,2,3-triazol-4-yl)methoxy)-2H-chromen-2-one] | 7.4 ± 0.94 | 8.36 ± 1.29 µM | 119 ± 2.49 | –
CC(=O)c1c(OCc2cn(Cc3ccccc3C(F)(F)F)nn2)ccc2ccc(=O)oc12 [10c, 8-Acetyl-7-((1-(2-(trifluoromethyl)benzyl)-1H-1,2,3-triazol-4-yl)methoxy)-2H-chromen-2-one] | 44.6 ± 1.84 | 173 ± 1.89 µM | 139 ± 1.47 | –
CC(=O)c1c(OCc2cn(Cc3ccccc3OC(F)(F)F)nn2)ccc2ccc(=O)oc12 [10d, 8-Acetyl-7-((1-(2-(trifluoromethoxy)benzyl)-1H-1,2,3-triazol-4-yl)methoxy)-2H-chromen-2-one] | 170 ± 1.76 | 139 ± 1.64 µM | 142 ± 1.59 | –

SMILES | IC50 [1] [µM] | IC50 [2] | IC50 [3] [µM] | inhibition at 10 µM [4] [%]
COc1cccc(Cn2cc(COc3cc4oc(=O)cc(C)c4cc3OCc3cn(Cc4cccc(OC)c4)nn3)nn2)c1 [13a, 6,7-Bis((1-(3-methoxybenzyl)-1H-1,2,3-triazol-4-yl)methoxy)-4-methyl-2H-chromen-2-one] | 51.7 ± 1.42 | 130.7 ± 0.45 µM | 129 ± 1.49 | –
COc1cc(Cn2cc(COc3cc4oc(=O)cc(C)c4cc3OCc3cn(Cc4cc(OC)cc(OC)c4)nn3)nn2)cc(OC)c1 [13b, 6,7-Bis((1-(3,5-dimethoxybenzyl)-1H-1,2,3-triazol-4-yl)methoxy)-4-methyl-2H-chromen-2-one] | 4.7 ± 0.67 | 168 ± 6.7 µM | 115 ± 3.86 | –
Cc1cc(=O)oc2cc(OCc3cn(Cc4ccccc4C(F)(F)F)nn3)c(OCc3cn(Cc4ccccc4C(F)(F)F)nn3)cc12 [13c, 4-Methyl-6,7-bis((1-(2-(trifluoromethyl)benzyl)-1H-1,2,3-triazol-4-yl)methoxy)-2H-chromen-2-one] | 82.5 ± 1.41 | 154.7 ± 1.42 µM | 139.4 ± 1 | –
Cc1cc(=O)oc2cc(OCc3cn(Cc4ccccc4OC(F)(F)F)nn3)c(OCc3cn(Cc4ccccc4OC(F)(F)F)nn3)cc12 [13d, 4-Methyl-6,7-bis((1-(2-(trifluoromethoxy)benzyl)-1H-1,2,3-triazol-4-yl)methoxy)-2H-chromen-2-one] | – | 176 ± 10.2 µM | 20.7 ± 0.93 | –
COc1cccc(Cn2cc(COc3cc4oc(=O)cc(C)c4cc3OC)nn2)c1 [16a, 6-Methoxy-7-((1-(3-methoxybenzyl)-1H-1,2,3-triazol-4-yl)methoxy)-4-methyl-2H-chromen-2-one] | 95.8 ± 1.12 | 164 ± 1.84 µM | 138.4 ± 1.02 | –
COc1cc(Cn2cc(COc3cc4oc(=O)cc(C)c4cc3OC)nn2)cc(OC)c1 [16b, 7-((1-(3,5-Dimethoxybenzyl)-1H-1,2,3-triazol-4-yl)methoxy)-6-methoxy-4-methyl-2H-chromen-2-one] | 191.2 ± 1.13 | 151 ± 5.05 µM | 9.06 ± 0.88 | –
COc1cc2c(C)cc(=O)oc2cc1OCc1cn(Cc2ccccc2C(F)(F)F)nn1 [16c, 6-Methoxy-4-methyl-7-((1-(2-(trifluoromethyl)benzyl)-1H-1,2,3-triazol-4-yl)methoxy)-2H-chromen-2-one] | 57.5 ± 1.42 | 141.7 ± 0.89 µM | 156.1 ± 1.42 | –
COc1cc2c(C)cc(=O)oc2cc1OCc1cn(Cc2ccccc2OC(F)(F)F)nn1 [16d, 6-Methoxy-4-methyl-7-((1-(2-(trifluoromethoxy)benzyl)-1H-1,2,3-triazol-4-yl)methoxy)-2H-chromen-2-one] | 141 ± 0.6 | 167 ± 2.45 µM | 167.6 ± 1.4 | –
COc1cccc(Cn2cc(COc3ccc4ccc(=O)oc4c3)nn2)c1 [19a, 7-((1-(3-Methoxybenzyl)-1H-1,2,3-triazol-4-yl)methoxy)-2H-chromen-2-one] | 2.8 ± 0.22 | 3.6 µM and 3.62 µM | 126 ± 3.92 | –
COc1cc(Cn2cc(COc3ccc4ccc(=O)oc4c3)nn2)cc(OC)c1 [19b, 7-((1-(3,5-Dimethoxybenzyl)-1H-1,2,3-triazol-4-yl)methoxy)-2H-chromen-2-one] | 63.2 ± 2.44 | 59.7 ± 0.62 µM | 132 ± 2.02 | –
O=c1ccc2ccc(OCc3cn(Cc4ccccc4C(F)(F)F)nn3)cc2o1 [19c, 7-((1-(2-(Trifluoromethyl)benzyl)-1H-1,2,3-triazol-4-yl)methoxy)-2H-chromen-2-one] | 77.3 ± 6.38 | 20.6 ± 0.95 µM | 17.7 ± 0.65 | –
O=c1ccc2ccc(OCc3cn(Cc4ccccc4OC(F)(F)F)nn3)cc2o1 [19d, 7-((1-(2-(Trifluoromethoxy)benzyl)-1H-1,2,3-triazol-4-yl)methoxy)-2H-chromen-2-one] | 97.2 ± 1.29 | 52.54 ± 0.4 µM | 172.8 ± 0.66 | –
O=c1cc(O)c2ccccc2o1 [compound 5, 4-hydroxycoumarin] | 167 ± 5.63 | 139 ± 1.85 µM | 169 ± 7.67 | –
Cc1cc(=O)oc2cc(O)c(O)cc12 [compound 11, 4-methyl-6,7-dihydroxycoumarin] | 148 ± 5.46 | 68.1 ± 4.05 µM | 105 ± 3.48 | –
COc1cc2c(C)cc(=O)oc2cc1O [compound 14, 7-Hydroxy-6-methoxy-4-methyl-2H-chromen-2-one] | 146 ± 4.91 | 89.1 ± 3.51 µM | 91.1 ± 2.41 | –
O=c1ccc2ccc(O)cc2o1 [compound 17, 7-hydroxycoumarin] | – | – | 175 ± 4.37 | –
C[n+]1c2ccccc2cc2[n-]c3ccccc3c21 [cryptolepine, reference compound] | 0.61 ± 0.3 | 0.33 ± 0.2 µM | – | –
COc1cc(/C=C/C(=O)CC(=O)/C=C/c2ccc(O)c(OC)c2)ccc1O [curcumin, reference compound] | – | – | – | 81
